Paper PMC4306533, “Distinct Features of Cap Binding by eIF4E1b Proteins” (Journal of Molecular Biology, 2015)
pIC50: −log10 of the molar value.

Assays:
[1] = target: T1, XeIF4E1a (Xenopus laevis, UniProt P48597); assay: time-synchronized fluorescence titration of cap analogue binding; conditions: for Kas + glycerol XeIF4E1a / Kas − glycerol XeIF4E1a: equilibrium association constant; for Kas − glycerol XeIF4E1a: buffer without glycerol
T1 construct: made in house; host or cells: E. coli Rosetta2(DE3)
Description: (§1) The time-synchronized fluorescence titration method, widely used to determine the affinity constants of cap–eIF4E complexes [[20,22–26]], measures the quenching of the intrinsic fluorescence of tryptophan residues due to cap binding (Fig. S2). Knowledge of the equilibrium association constant Kas enables the calculation of the free-energy changes involved in the interaction between eIF4E and ligand, according to the standard equation ΔG° = − RTlnKas.
(§2) For human eIF4E1a and eIF4E1b and also for Xenopus eIF4E1a and its mutated forms, measurements were carried out using 0.1 μM protein in 50 mM Hepes/KOH (pH 7.2), 134.5 mM KCl, 0.5 mM EDTA and 1 mM DTT. For Xenopus eIF4E1b(ΔN27), the concentration was 0.2 μM and glycerol was added to the buffer to 10% (v/v) final concentration. […] Fluorescence of measured samples was excited at 280 nm (2.5 nm bandwidth) and detected at 337 nm or 330 nm (4 nm bandwidth), thus reducing the signal originated from the free cap analogues. Measurements were carried out on a LS-55 spectrofluorometer (Perkin Elmer Co.) using freshly prepared proteins, and the fluorescence intensities were corrected for sample dilution and the inner filter effect.
(§3) Equilibrium association constants (Kas) were determined by fitting the theoretical dependence of fluorescence intensity on the total concentration of the cap analogue to the experimental data points, according to the equation described previously (see Ref. [22] and Fig. S2c).
(§4) The final Kas was calculated as a weighted average of 2–6 independent titrations with the weights taken as the reciprocal of the numerical standard deviation squared. Numerical, nonlinear least-squares regression analysis was performed using Origin 6.0 (Microcal Software Inc.). Obtained association constants were used to determine the Gibbs free energy according to the standard equation ΔG° = − RTlnKas.

[2] = system: XeIF4E1a; assay: as above; parameters: species or system Xenopus laevis; conditions: without glycerol
Description: as §1, §2, §3, §4

[3] = target: T2, heIF4E1a (Homo sapiens, UniProt P06730); assay: as above; conditions: change relative to m^7GTP; without glycerol
T2 construct: made in house; host or cells: E. coli Rosetta2(DE3)
Description: as §1, §2, §3, §4

[4] = target: T3, heIF4E1b (Homo sapiens, UniProt A6NMX2); assay: as above; conditions: for Kas − glycerol heIF4E1b: equilibrium association constant, buffer without glycerol
T3 construct: made in house; host or cells: E. coli Rosetta2(DE3)
T3 sequence (A6NMX2 1-242): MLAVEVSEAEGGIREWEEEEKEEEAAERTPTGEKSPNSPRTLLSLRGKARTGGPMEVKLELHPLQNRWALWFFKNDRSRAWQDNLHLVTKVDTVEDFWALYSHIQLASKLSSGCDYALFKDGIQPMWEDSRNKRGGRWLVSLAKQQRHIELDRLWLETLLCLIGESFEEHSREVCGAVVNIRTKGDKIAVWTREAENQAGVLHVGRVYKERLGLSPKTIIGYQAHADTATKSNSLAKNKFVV
Description: as §1, §2, §3, §4

[5] = system: heIF4E1b; assay: as above; parameters: species or system human; conditions: for Ratio Kas (h4E1a) to Kas (h4E1b): without glycerol
Description: as §1, §2, §3, §4

[6] = system: XeIF4E1bΔN27; assay: as above; parameters: species or system Xenopus laevis; conditions: 10% glycerol
Description: as §1, §2, §3, §4

[7] = target: T4, X4E1a3 (E101S/K102R/S195A) (Xenopus laevis, UniProt P48597, E101S/K102R/S195A); assay: fluorescence titration, XeIF4E1a mutant; assay type: binding; conditions: mutant (E101S/K102R/S195A) of XeIF4E1a
T4 construct: made in house; host or cells: E. coli Rosetta2(DE3)
Description: (§5) We tested the effect on cap-binding activity of these positions in the fluorescence assay with six mutated recombinant versions of Xenopus eIF4E1a (Fig. S4). The amino acids were introduced in XeIF4E1a sequentially in the order: E101S/K102R/S195A/M82S/T206L/T207S (numbering of the XeIF4E1a sequence is shifted backward by 4 amino acids relative to XeIF4E1b). […] The biggest contribution to the weaker cap binding of XeIF4E1a, in each case about 20%, resulted from changing Glu101 to Ser and Thr206 to Leu coupled with Thr207 to Ser, with the remaining mutations having only minor effects. […] Glu101 is a solvent-accessible amino acid and is proximal to Trp98 in the S3-S4 loop. […] Attenuation of the cap-binding affinity of XeIF4E1a resulting from mutating Thr206 and Thr207 is consistent with our results mentioned above showing significant influence of C-terminal loop residues on binding phosphate and the second nucleotide.
(§6) For human eIF4E1a and eIF4E1b and also for Xenopus eIF4E1a and its mutated forms, measurements were carried out using 0.1 μM protein in 50 mM Hepes/KOH (pH 7.2), 134.5 mM KCl, 0.5 mM EDTA and 1 mM DTT. For Xenopus eIF4E1b(ΔN27), the concentration was 0.2 μM and glycerol was added to the buffer to 10% (v/v) final concentration. […] The gradually increasing concentration of cap analogue quenches protein fluorescence without shifting the spectrum maximum, while at high concentrations, the fluorescence signal of free cap analogue dominates over the fluorescence from other solution components including free eIF4E and eIF4E in complex with cap (Fig. S2a). Fluorescence of measured samples was excited at 280 nm (2.5 nm bandwidth) and detected at 337 nm or 330 nm (4 nm bandwidth), thus reducing the signal originated from the free cap analogues. Measurements were carried out on a LS-55 spectrofluorometer (Perkin Elmer Co.) using freshly prepared proteins, and the fluorescence intensities were corrected for sample dilution and the inner filter effect.
(§7) Equilibrium association constants (Kas) were determined by fitting the theoretical dependence of fluorescence intensity on the total concentration of the cap analogue to the experimental data points, according to the equation described previously (see Ref. [22] and Fig. S2c). […] Along with Kas and the concentration of the active protein [P0^act], other parameters such as fL and ∆f = fPact − fPL are also gained from the fit, where fL represents the fluorescence efficiency of free cap analogue and ∆f represents the difference between the fluorescence efficiencies of the apo-protein and the complex (Fig. S2c).
as §4

[8] = target: T5, X4E1a4 (E101S/K102R/S195A/M82S) (Xenopus laevis, UniProt P48597, E101S/K102R/M82S/S195A); assay: fluorescence titration, XeIF4E1a mutant; assay type: binding; conditions: mutant (E101S/K102R/S195A/M82S) of XeIF4E1a
T5 construct: made in house; host or cells: E. coli Rosetta2(DE3)
Description: as §5, §6, §7, §4

[9] = target: T6, X4E1a6 (E101S/K102R/S195A/M82S/T206L/T207S) (Xenopus laevis, UniProt P48597, E101S/K102R/M82S/S195A/T206L/T207S); assay: fluorescence titration, XeIF4E1a mutant; assay type: binding; conditions: mutant (E101S/K102R/S195A/M82S/T206L/T207S) of XeIF4E1a
T6 construct: made in house; host or cells: E. coli Rosetta2(DE3)
Description: as §5, §6, §7, §4

[10] = target: T2, heIF4E1a; parameters: method as in PMID 17369309; conditions: equilibrium association constant; buffer without glycerol; footnote b; cited from earlier work
[11] = system: in vitro translation; parameters: method as in PMID 10387101; conditions: Cai et al.; read-out: IC50 (inhibitory potency); cited from earlier work
[12] = change relative to m^7GTP, without glycerol

T2 sequence (P06730 whole entry): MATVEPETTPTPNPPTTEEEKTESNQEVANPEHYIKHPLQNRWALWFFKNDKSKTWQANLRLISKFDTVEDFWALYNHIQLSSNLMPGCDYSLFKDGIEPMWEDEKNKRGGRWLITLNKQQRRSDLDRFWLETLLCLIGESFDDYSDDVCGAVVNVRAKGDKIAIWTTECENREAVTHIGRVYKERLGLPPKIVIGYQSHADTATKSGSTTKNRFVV
T1 sequence (P48597 whole entry): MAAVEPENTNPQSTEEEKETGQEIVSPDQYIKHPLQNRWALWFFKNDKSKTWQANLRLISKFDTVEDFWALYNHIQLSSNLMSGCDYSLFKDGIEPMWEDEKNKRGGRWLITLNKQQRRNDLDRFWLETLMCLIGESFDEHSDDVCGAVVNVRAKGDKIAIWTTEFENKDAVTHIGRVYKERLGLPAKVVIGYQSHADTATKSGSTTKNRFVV
T6 sequence (P48597 whole entry M82S/E101S/K102R/S195A/T206L/T207S): as the sequence (P48597 whole entry) above, with M82S, E101S, K102R, S195A, T206L, T207S counted along it
T4 sequence (P48597 whole entry E101S/K102R/S195A): as the sequence (P48597 whole entry) above, with E101S, K102R, S195A counted along it
T5 sequence (P48597 whole entry M82S/E101S/K102R/S195A): as the sequence (P48597 whole entry) above, with M82S, E101S, K102R, S195A counted along it

| SMILES | ΔΔG^o + glycerol XeIF4E1a ([1]; change relative to m^7GTP, 10% glycerol) [kcal/mol] | ΔΔG^o − glycerol XeIF4E1a [1, 12] [kcal/mol] | Kas + glycerol XeIF4E1a ([1]; 10% glycerol) [μM^− 1] | Kas − glycerol XeIF4E1a [1] [μM^− 1] | Ratio Kas (h4E1a) to Kas (X4E1a) [2] | ΔΔG^o − glycerol heIF4E1a [3] [kcal/mol] | ΔΔG^o − glycerol heIF4E1b [4, 12] [kcal/mol] | Kas − glycerol heIF4E1b [4] [μM^− 1] | Ratio Kas (h4E1a) to Kas (h4E1b) [5] | Ratio Kas (X4E1a) to Kas (X4E1bΔN27) [6] | ΔΔG^o + glycerol XeIF4E1bΔN27 ([6]; change relative to m^7GTP) [kcal/mol] | Kas + glycerol XeIF4E1bΔN27 ([6]; equilibrium association constant) [μM^− 1] | Kas X4E1a3 [7] [µM⁻¹] | Kas X4E1a4 [8] [µM⁻¹] | Kas X4E1a6 [9] [µM⁻¹] | Kas − glycerol heIF4E1a [10] | fold higher affinity of human eIF4E1b than eIF4E1a ([5]; human proteins) | pIC50 [11] |
| --- | --- | --- | --- | --- | --- | --- | --- | --- | --- | --- | --- | --- | --- | --- | --- | --- | --- | --- |
| Cn1c[n+]([C@@H]2O[C@H](COP(=O)(O)OP(=O)(O)OP(=O)(O)OC[C@H]3O[C@@H](n4cnc5c(N)ncnc54)[C@H](O)[C@@H]3O)[C@@H](O)[C@H]2O)c2nc(N)[nH]c(=O)c21 [m^7GpppA] | 1.717 ± 0.033 | 1.779 ± 0.029 | 1.22 ± 0.053 | 2.015 ± 0.028 | 1.97 | 1.658 ± 0.053 | 1.352 ± 0.039 | 2.158 ± 0.053 | 1.84 | 1.99 | 1.479 ± 0.050 | 0.615 ± 0.042 | 1.57 ± 0.21 | 1.48 ± 0.11 | 1.33 ± 0.11 | 3.97 ± 0.21 ^b μM^− 1 |  |  |
| Nc1nc2c(ncn2[C@@H]2O[C@H](COP(=O)(O)OP(=O)(O)OP(=O)(O)O)[C@@H](O)[C@H]2O)c(=O)[nH]1 [GTP, reference compound] |  |  | 0.055 ± 0.021 | 0.031 ± 0.006 | 0.87 |  |  | 0.159 ± 0.040 | 0.17 |  |  |  |  |  |  | 0.027 ± 0.001 ^b μM^− 1 | approximately 5 fold |  |
| Nc1nc2c(c(=O)[nH]1)[n+](Cc1ccc(Cl)cc1)cn2[C@@H]1O[C@H](COP(=O)([O-])O)[C@@H](O)[C@H]1O [p-Cl-bn^7GMP] |  |  |  |  |  |  |  |  |  |  |  |  |  |  |  |  |  | 4.29 |
